Some test systems named below: CCRF-CEM leukemia; HS 578T breast; IGROV1 ovarian; K-562 leukemia; LOX IMVI melanoma; MDA-MB-231 breast; MDA-N; NCI-H522 lung; OVCAR-3 ovarian; OVCAR-4 ovarian; SF-295 CNS; SNB-19 CNS; SR leukemia; SW-620 colon; MCF7 breast.
What all share (experiment): DTP human tumour cell line panel, 48 h

The structures appear in SMILES notation.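 These data come from cells grown in 96-well plates and exposed to compound for 48 hours at five concentrations. TGI marks complete inhibition of growth.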

With `Cn1c(=O)c2[nH]c(CCNC(=O)c3ccccc3)nc2n(C)c1=O`, the TGI in the assay on CCRF-CEM leukemia, in the assay on HS 578T breast, in the assay on IGROV1 ovarian, with K-562 leukemia, in the assay on LOX IMVI melanoma and with MDA-MB-231 breast was more than 100 µM throughout. For the same compound, the concentration for total growth inhibition (TGI) in the assay with MDA-N, with NCI-H522 lung, in the assay with OVCAR-3 ovarian, in the assay on OVCAR-4 ovarian, in the assay on SF-295 CNS and with SNB-19 CNS was more than 100 µM in each case. For the same compound, the TGI with SR leukemia and with SW-620 colon was more than 100 µM each time.

For the compound `CC(=O)C1C(=O)C(=O)N(c2cccc([N+](=O)[O-])c2)C1=O` (stereo unspecified), the TGI in the assay with CCRF-CEM leukemia, in the assay on HS 578T breast, with IGROV1 ovarian, with LOX IMVI melanoma, with MCF7 breast and with MDA-MB-231 breast was more than 100 µM in each case. In addition, the TGI with MDA-N, in the assay with NCI-H522 lung, with OVCAR-3 ovarian, with OVCAR-4 ovarian, in the assay on SF-295 CNS and with SNB-19 CNS was more than 100 µM in each case. The TGI (as a rule, the concentration giving total growth inhibition) with SW-620 colon is more than 100 µM.

Regarding `Cc1ccccc1-n1c(=O)c2ncn(C3CCCO3)c2n(-c2ccccc2C)c1=S` (stereo unspecified), the TGI in the assay on CCRF-CEM leukemia, in the assay on HS 578T breast, in the assay on IGROV1 ovarian, in the assay with K-562 leukemia, in the assay on LOX IMVI melanoma and with MCF7 breast was more than 100 µM in each case. Further, the TGI in the assay on MDA-MB-231 breast, in the assay with MDA-N, in the assay on NCI-H522 lung, with OVCAR-3 ovarian, in the assay on SF-295 CNS and with SNB-19 CNS was more than 100 µM in each case. Besides, the TGI with SW-620 colon is more than 100 µM.

In the case of `Cn1c(=O)c2c(nc3n2CC(=O)N3CCCCl)n(C)c1=O`, the TGI in the assay on CCRF-CEM leukemia, in the assay on HS 578T breast, with IGROV1 ovarian, with K-562 leukemia, in the assay with LOX IMVI melanoma and with MCF7 breast was more than 100 µM each time. Besides, the TGI with MDA-MB-231 breast, in the assay on MDA-N, in the assay with OVCAR-3 ovarian, in the assay with OVCAR-4 ovarian, in the assay with SF-295 CNS and in the assay with SNB-19 CNS was more than 100 µM throughout. In the assay with SW-620 colon, this compound yielded a total growth inhibition concentration (TGI) of more than 100 µM.

For the compound `CC1CC(C)C(C#N)N(C)c2ccccc21` (stereo unspecified), the TGI in the assay on CCRF-CEM leukemia, in the assay with HS 578T breast, with IGROV1 ovarian, with K-562 leukemia, with MCF7 breast and in the assay with MDA-MB-231 breast was more than 100 µM each time. The TGI was more than 100 µM in the assay on MDA-N; more than 100 µM with OVCAR-3 ovarian; more than 100 µM with OVCAR-4 ovarian; more than 100 µM with SF-295 CNS; more than 100 µM with SNB-19 CNS; 92.2 µM in the assay on SR leukemia. Besides, the TGI in the assay with SW-620 colon is more than 100 µM.

Consider `CCOC(=O)C1C(c2ccc3c(c2)OCO3)c2c([nH][nH]c2=O)CC1(C)O` (stereo unspecified), for which the total growth inhibition concentration (TGI) in the assay on CCRF-CEM leukemia, in the assay on HS 578T breast, with IGROV1 ovarian, in the assay with LOX IMVI melanoma, in the assay with MCF7 breast and in the assay on MDA-MB-231 breast was more than 100 µM each time. For the same compound, the TGI in the assay with MDA-N, in the assay on NCI-H522 lung, in the assay on OVCAR-3 ovarian, with OVCAR-4 ovarian, in the assay with SF-295 CNS and with SNB-19 CNS was more than 100 µM throughout. In addition, the TGI in the assay with SR leukemia and with SW-620 colon was more than 100 µM in each case.

Regarding `O=c1[nH]cc(-c2c[nH]c3ccccc23)nc1-c1c[nH]c2ccccc12`, the TGI in the assay on HS 578T breast turned out to be 39.9 µM; in the assay with IGROV1 ovarian, 14.6 µM; in the assay with K-562 leukemia it was 9.21 µM; with LOX IMVI melanoma, 27.5 µM; in the assay on MCF7 breast, 54.7 µM; in the assay on MDA-MB-231 breast, 89.2 µM. For the same compound, the TGI was found to be 9.44 µM in the assay on MDA-N; 20.3 µM in the assay on NCI-H522 lung; 23.3 µM in the assay on OVCAR-3 ovarian; 43.3 µM with OVCAR-4 ovarian; 19 µM with SF-295 CNS; 34.6 µM in the assay with SNB-19 CNS. Also, the TGI in the assay on SW-620 colon is 18.1 µM.

Regarding `CCCCn1c(N)c(-c2nc3ccccc3o2)sc1=S`, the TGI in the assay with CCRF-CEM leukemia is more than 100 µM; in the assay with HS 578T breast, 77.6 µM; in the assay on IGROV1 ovarian, 44.1 µM; in the assay with K-562 leukemia, more than 100 µM; in the assay with MCF7 breast, more than 100 µM; in the assay with MDA-MB-231 breast, 34.3 µM. The TGI with MDA-N is 69.1 µM; in the assay with NCI-H522 lung, 31.5 µM; with OVCAR-3 ovarian, 33.9 µM; in the assay with OVCAR-4 ovarian it was 19.9 µM; in the assay on SF-295 CNS, 28.9 µM; in the assay with SNB-19 CNS it was more than 100 µM. In the assay with SR leukemia, this compound showed a TGI of more than 100 µM.

As to `Cc1cc(S(=O)(=O)Nc2nc3ccccc3nc2-c2cccc([N+](=O)[O-])c2)c(S)cc1Cl`, the TGI in the assay on CCRF-CEM leukemia is 75.7 µM; in the assay on HS 578T breast it was 73.4 µM; with IGROV1 ovarian, 30.4 µM; in the assay on K-562 leukemia, more than 100 µM; in the assay with MCF7 breast, 64.5 µM; with MDA-MB-231 breast it was more than 100 µM. Also, the TGI in the assay on MDA-N stood at 46.2 µM; in the assay on NCI-H522 lung, 38.9 µM; with OVCAR-3 ovarian it was 30.6 µM; in the assay on OVCAR-4 ovarian, 66.8 µM; with SF-295 CNS, 59.8 µM; with SNB-19 CNS, 39.9 µM. In addition, the TGI in the assay with SR leukemia stood at 47.4 µM.

Take `CN1c2ccccc2C(=O)NC12CCN(CCCC(=O)c1ccc(F)cc1)CC2`: the TGI with CCRF-CEM leukemia was more than 100 µM; with HS 578T breast, more than 100 µM; in the assay on IGROV1 ovarian, more than 100 µM; with K-562 leukemia it was 77.8 µM; in the assay on MCF7 breast, more than 100 µM; with MDA-MB-231 breast, more than 100 µM. In addition, the TGI in the assay with MDA-N, with NCI-H522 lung, in the assay on OVCAR-3 ovarian, in the assay with OVCAR-4 ovarian, with SF-295 CNS and in the assay with SR leukemia was more than 100 µM throughout. The same compound returned a TGI in the assay with SW-620 colon of more than 100 µM.

Take `O=[N+]([O-])c1cccc2nnccc12`: the TGI in the assay on HS 578T breast was more than 100 µM; in the assay with IGROV1 ovarian, more than 100 µM; in the assay on K-562 leukemia, more than 100 µM; with MCF7 breast, more than 100 µM; in the assay on MDA-N it was 34.5 µM; with NCI-H522 lung it was 20.6 µM. Besides, the TGI in the assay on SF-295 CNS was more than 100 µM; in the assay with SNB-19 CNS it was 87.1 µM; in the assay on SW-620 colon it was more than 100 µM.

For the origin of these results see PubChem BioAssay (NCI).
